Data set [1] deals with normal human epidermal fibroblasts. As to the kind of experiment: cell uptake of Rhodamine B from temperature-responsive liposome carriers with different vitamin derivatives. The format is cell-based. The following applies: EPC-added groups set to 100%, liposome carrier with DOPEMP (NIPAA/DMAPAA 5%) Cop, rhodamine 1 μM, 35° C. 1 hour, 40° C. 20 min. As for the experimental part:
The total amount of the next lipid was 20 mg, the molar ratio of (lipid 1,2-diore oil-3-trimethylammonium propane):(total weight of lamella-forming surfactant diore oil phosphatidylethanolamine and DOPEMP (NIPAA/DMAPAA 5%) Cop) was 3:7. Each was dissolved in chloroform. Further, the fluorescent dye Rhodamine B (1 mg) was added and dissolved. The lower limit critical dissolution temperature of DOPEMP (NIPAA/DMAPAA 5%) Cop used in this experiment in water was 40° C. The molar ratio of (dioleoylphosphatidylethanolamine: DOPEMP (NIPAA/DMAPAA) Cop.) added by total weight was 6.5:0.5.
The solution was transferred to an eggplant flask and the solvent was blown off by an evaporator to prepare a lipid film. EPC, APPS, APS and AA (ascorbic acid), which are […] of Vitamin derivatives having different ATG activity and CTS activity (hereinafter abbreviated as ATG-CTS activity), were prepared. To this lipid film, EPC, APPS, APS and AA (5 mg each) dissolved in PBS (1 ml) were added. The lipid film was hydrated and then dispersed by vortexing. After that, sonication was performed for 30 minutes in an ultrasonic bath to reduce the size of the liposome, and then the liposome was passed through a 200 nm filter using an extruder to adjust the size of the liposome. The average particle size of the examples and comparative examples was 111 nm±10 nm. Then, the liposomes were separated and purified by gel filtration. By the above method, a Delivery carrier into cell of the present invention containing an ATG-CTS activator, a temperature-responsive polymer and a hydrocarbon was prepared.
Next, normal human epidermal fibroblasts were cultured in DMEM (low glucose) containing 5% FBS for 24 hours at 37° C. at a density of 5×10^5 cell/well in 6-well plates, and then the medium containing four delivery carrier into the cell (added to achieve a final rhodamine concentration of 1 μM), including the embodiments and comparative examples prepared as described above, was exchanged for each medium and cultured at 35° C. for 1 hour. After that, it was incubated at 40° C. for 20 min, and then at 35° C. for 1 h. It was then washed five times with PBS and immobilized with 4% paraformaldehyde phosphate buffer solution for 20 min, washed twice with PBS again, and the relative concentration of the fluorescent material taken up into the cell was determined by measuring the fluorescence intensity with a fluorescent microplate reader. cell of delivery carrier into the cell without vitamin derivatives were also cultured in the same way as additive-free controls and the fluorescence intensity was measured.

The format of data set [2] is physicochemical. The following applies: for Remaining rate: buffer; for Evaluation results: 0.5% by weight in purified water, defoaming time. As for the experimental part:
The ascorbic acid derivatives of APS, APPS, EPC, and AA were dissolved in purified water at a concentration of 0.5% by weight, and the time to defoam the bubbles was measured with a sponge under the same conditions. The results are shown in Table 14, where the defoaming time of the APPS with the longest defoaming time was set to 100% and the defoaming time of each was calculated as a percentage, with 90% or more being considered O (best), 80% or more to 90% or less being considered B (good), and 80% or less being considered X (poor). Description of abbreviations: ascorbic acid-2-phosphateNa:APS, ascorbic acid-2-phosphate-6-palmitate3Na:APPS, ascorbic acid-2-tocopheryl potassium:EPC, ascorbic acid:AA.

The format of data set [3] is physicochemical. The following applies: for Remaining rate: buffer; for Evaluation results: 0.02 mol/L in purified water, 50° C., one month. The procedure:
APS, APPS, and EPC so that the concentration of each ascorbate derivative is 0.02 mol/L. Dissolve them in purified water and store them at 50° C. for one month to determine their potency in a high performance liquid The starting titers of each substance were measured by chromatography, and the results after one month were used as the starting titer of 100%. If more than 95% of the result was remaining in the material, it is ∘, and if less than 95% or more than 80% of the result was less than 95%, it is […]. […] Sodium ascorbic acid-2-phosphate: APS; Sodium ascorbic acid-2-phosphate-6-palmitate 3: APPS; Potassium tocopheryl ascorbic acid-2-phosphate: EPC; ascorbic acid: AA.

Data set [4] deals with normal human epidermal fibroblasts. As to the kind of experiment: cell uptake of rhodamine B from carriers without stimulus-responsive polymers. Particulars: EPC set at 100%; carrier without stimulus-responsive polymers; vitamin derivative 200 μM; 37° C. 1 hour. The format is cell-based. As for the experimental part: Create a Delivery carrier into cell in a comparison experiment To investigate the effects of vitamin derivatives with different ATG-CTS activities on cell uptake, the following experiments were performed on delivery carrier into the cell without stimulus-responsive polymers. Six g of glycerin, 1 g of sodium cocoyl glutamate, and 1 g each of three vitamin derivatives (PA, APPS, and EPC) with different ATG-CTS activities were mixed with an electric hand mixer, and 0.1 g of rhodamine B, a fluorescent dye, was added to 20 g of jojoba oil and stirred for 20 minutes. To this, PBS was added to 100 g and stirred for 10 minutes with an electric hand mixer to prevent foaming. 3 types of cell carriers were obtained by completely dispersing them. A Delivery carrier into cell of vitamin derivative-free was also created using the same method as an additive-free control.
Normal human epidermal fibroblasts were incubated in DMEM (low glucose) containing 5% FBS at a density of 5×10^5 cell/well at 37° C. for 24 hours in 6-well plates, and then the medium containing the three delivery carrier into the cell of the invention (final concentration of PA, APPS, and EPC was added to 200 μM each) was replaced with the medium prepared as described above and incubated at 37° C. for 1 hour. Then, the cell were washed five times with PBS and immobilized with 4% paraformaldehyde phosphate buffer solution for 20 min, washed twice with PBS again, and the relative concentration of the fluorescent material taken up into the cell was determined by measuring the fluorescence intensity at the excitation wavelength of 555 (nm) and the fluorescence wavelength of 580 (nm) with a fluorescent microplate reader. cell of delivery carrier into the cell without vitamin derivatives were also cultured in the same way as additive-free controls and the fluorescence intensity was measured.

For data set [5] the following is noted: concentration in the formulation increased to 1%.
For data set [6], the system named is HMV-II cell. As to the kind of experiment: Melanin production inhibition test. The format is cell-based. The following applies: 200 μM, no carrier. The procedure: Pre-treatment: The following melanin production inhibition tests were performed using A-2, B-2, C-2, and D-2 pH-responsive delivery carrier into the cell (A-3, B-3, C-3, and D-3): HMV-II cell were seeded in 24 well dishes at a concentration of 1×10^5 cell/mL, incubated for 24 hours, and then added 200 μM of IBMX and A-3, B-3, C-3, and D-3 pH-responsive delivery carrier into the cell (A-3, B-3, C-3, and D-3) at an APS concentration of 100 μM. 2 hours later, the cell were washed with PBS, 200 μM of IBMX was added again, and incubated for 70 hours. The cell were then solubilized with 200 μL of NaOH at 1 mol/L, and melanin was extracted and quantified by measuring the absorbance at 405 nm. The melanin production was increased about 3-fold by the addition of IBMX (no carrier for pH-responsive cell delivery). When the amount of melanin produced at this time was assumed to be 100%, the amount of melanin produced by A-3 addition of the invention was 48%, B-3 was 78%, C-3 was 85%, and D-3 was 90%.

For data set [7], the system named is HMV-II cell. The data set can be described thus: Cellular damage assessment (Cell Counting Kit-8). The format is cell-based. Particulars: Cell Counting Kit-8, absorbance at 450 nm. The procedure:
HMV-II cell were seeded at a concentration of 1×10^5 cell/mL in 500 μL/well on a 6-well plate. After incubation for 24 hours, 200 μM of IBM X, a melanin-producing stimulant, was added. APS was added to 100 μM for each pH-responsive delivery carrier into cell of A-3, B-3, C-3, and D-3. 2 hours later, the cell were washed with PBS, 200 μM of IVMX was added again, and incubated for 70 hours. To this, 10 μL of Cell Counting Kit-8 was added, and the cytotoxicity of sample addition was compared by measuring absorbance at 450 nm after 1 h of incubation.

The nature of data set [8]: lower critical dissolution temperature in water. The format is physicochemical. As for the experimental part:
The lower critical dissolution temperature of the temperature-stimuli-responsive polymer-containing molecules in the present invention in water should be between a temperature close to body temperature and 70° C., which is the maximum temperature for carrier transportation in summer during product distribution (e.g., 35.0 to 70.0° C.). On the other hand, for the temperature-responsive polymer of the present invention, even if the lower critical dissolution temperature is near body temperature, it is easier to suppress cell death after delivery into cells if the temperature is as high as possible. […] In the present invention, the lower critical dissolution temperature of the temperature-responsive polymer in water is measured by differential scanning calorimetry (DSC).
For this reason, the lower critical dissolution temperature of the conventional temperature-stimulus-responsive-polymer containing molecules is preferred to be 37-42° C., which is close to the body temperature. […] In the present invention, the lower critical dissolution temperature of the temperature-stimulus-responsive polymer in water is measured by differential scanning calorimetry (DSC).

Results on nine molecules are retold here after patent US12642769B2, “Delivery carrier into cell” (Kabusikikaisya ITO, priority 2019, dated 2026).

Where two headings read alike, the source gives them in different places.

Regarding `O=C1O[C@H]([C@@H](O)CO)C(O)=C1O` [AA, ascorbic acid, reference compound], the “fluorescence intensity (fluorescent material taken up into the cell)” value (from here on “fluorescence intensity”) in data set [1] is 52%. Moreover, the Remaining rate in data set [2] turned out to be 1%; in data set [3] (1 month, 0.02 mol/L), 56%.

Take `CCCCCCCCCCCCCCCC(=O)OC[C@H](O)C1OC(=O)C(OP(=O)([O-])[O-])=C1[O-].[Na+].[Na+].[Na+]` (stereo partly drawn) [APPS, Sodium ascorbic acid-2-phosphate-6-palmitate 3]: the “fluorescence intensity” value in data set [4] was 76%; in data set [1], 78%. Moreover, the Evaluation results in data set [2] is on record as “○”. Besides, the Remaining rate in data set [2] was determined as 100%; in data set [3], 78%.

On to `O=C1O[C@H]([C@@H](O)CO)C(O)=C1OP(=O)([O-])[O-].[Na+].[Na+]` [APS, Sodium ascorbic acid-2-phosphate], for which the “fluorescence intensity” value in data set [1] came to 49%. Besides, the Remaining rate in data set [2] stood at 3%; in data set [3] (1 month, 0.02 mol/L), 91%. Besides, in data set [3], the Evaluation results is reported as “Δ”.

In the case of `Cc1c(C)c2c(c(C)c1OP(=O)([O-])OC1=C(O)[C@@H]([C@@H](O)CO)OC1=O)CC[C@@](C)(CCC[C@H](C)CCC[C@H](C)CCCC(C)C)O2.[K+]` [EPC, Potassium tocopheryl ascorbic acid-2-phosphate], the “fluorescence intensity” value in data set [4] and in data set [1] was 100% throughout. Moreover, the Evaluation results in data set [2] is “Δ”; in data set [3], “○”. Also, the Remaining rate in data set [2] is reported as 85%; in data set [3] it was 96%.

For `CCCCCCCC(=O)OC1=C(OCC(O)CO)C(=O)OC1C(O)CO` (stereo not drawn) [GOVC, 2-glyceryl-3-Caprylyl ascorbate], the skin irritation entry in data set [5] was “no skin irritation was observed”.

With `CC(C)Cn1c(=O)n(C)c(=O)c2[nH]cnc21` [IBMX], the “increase of melanin production” value in the data set with HMV-II cell [6] was “about 3 fold”. Moreover, in the data set with HMV-II cell [7], the cytotoxicity result is recorded as “cytotoxicity was confirmed”.

On to `CCCCCCCC(=O)OC1=C(OCC(O)CO)C(C(O)CO)OC1=O` (stereo not drawn) [OGVC, 3-glyceryl-2-Caprylyl ascorbate], for which, in data set [5], the skin irritation result is given as “no skin irritation was observed”.

`CCCCCCCCCCCCCCCC(=O)OC[C@H](O)[C@H]1OC(=O)C(O)=C1O` [PA, ascorbyl palmitate]: the “fluorescence intensity” value in data set [4] is on record as 58%.

In the case of “Dioleoylephosphatidylethanolamine mercaptopropionyl (isopropylacrylamide/dimethylaminopropylacrylamide 5%) copolymer [DOPEMP (NIPAA/DMAPAA 5%) Cop]”, the “lower critical dissolution temperature in water” value in data set [8] stood at 40 °C.
